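Assay format: 96-well plates, 48-hour exposure. Definition used: TGI = concentration required for complete inhibition of growth.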
The compounds below were run on OVCAR-3 ovarian (assay: NCI tumour cell line growth inhibition, 48 h).

SMILES	TGI [µM]
c1ccc(-c2nnc(-c3nn(-c4ccccc4)c4nc5ccccc5nc34)o2)cc1	> 100
COc1cc2c(cc1OC)C1C=NC(C(=O)O)(C2)c2ccccc21 (configuration not stated)	> 100
Cc1cc(C)nc(NS(=O)(=O)c2ccc(NC(=O)c3cccc4c(=O)c5ccccc5[nH]c34)cc2)n1	37.6
O=C(N/N=C/c1cccc(O)c1O)N/N=C/c1cccc(O)c1O	8.8
CC(=O)OCCc1cccnc1/C=N/O	> 100
COc1ccc(/C=C(/C(=O)O)c2cc(OC)c(OC)c(OC)c2)cc1	64.1
O=C1Oc2cc3c(c4cccc1c24)OCN(c1ccc(Cl)cc1)C3	> 57.4
CCOC(=O)CCCO	> 100

These compounds were tested on LXFL 529 NSCLC (assay: NCI tumour cell line growth inhibition, 48 h).

SMILES	TGI [µM]
c1ccc(-c2nnc(-c3nn(-c4ccccc4)c4nc5ccccc5nc34)o2)cc1	> 100
COc1cc2c(cc1OC)C1C=NC(C(=O)O)(C2)c2ccccc21 (configuration not stated)	> 100
Cc1cc(C)nc(NS(=O)(=O)c2ccc(NC(=O)c3cccc4c(=O)c5ccccc5[nH]c34)cc2)n1	> 100
O=C(N/N=C/c1cccc(O)c1O)N/N=C/c1cccc(O)c1O	> 100
CC(=O)OCCc1cccnc1/C=N/O	> 100
COc1ccc(/C=C(/C(=O)O)c2cc(OC)c(OC)c(OC)c2)cc1	> 100
O=C1Oc2cc3c(c4cccc1c24)OCN(c1ccc(Cl)cc1)C3	25
CCOC(=O)CCCO	> 100

Each compound was assayed on TK-10 renal (assay: NCI tumour cell line growth inhibition, 48 h).

SMILES	TGI [µM]
c1ccc(-c2nnc(-c3nn(-c4ccccc4)c4nc5ccccc5nc34)o2)cc1	> 100
COc1cc2c(cc1OC)C1C=NC(C(=O)O)(C2)c2ccccc21 (configuration not stated)	> 100
Cc1cc(C)nc(NS(=O)(=O)c2ccc(NC(=O)c3cccc4c(=O)c5ccccc5[nH]c34)cc2)n1	51
O=C(N/N=C/c1cccc(O)c1O)N/N=C/c1cccc(O)c1O	> 100
CC(=O)OCCc1cccnc1/C=N/O	> 100
O=C1Oc2cc3c(c4cccc1c24)OCN(c1ccc(Cl)cc1)C3	> 100
CCOC(=O)CCCO	> 100

What follows are compounds tested on NCI-H23 lung (assay: NCI tumour cell line growth inhibition, 48 h).

SMILES	TGI [µM]
c1ccc(-c2nnc(-c3nn(-c4ccccc4)c4nc5ccccc5nc34)o2)cc1	> 100
COc1cc2c(cc1OC)C1C=NC(C(=O)O)(C2)c2ccccc21 (configuration not stated)	> 100
Cc1cc(C)nc(NS(=O)(=O)c2ccc(NC(=O)c3cccc4c(=O)c5ccccc5[nH]c34)cc2)n1	33.4
O=C(N/N=C/c1cccc(O)c1O)N/N=C/c1cccc(O)c1O	> 100
CC(=O)OCCc1cccnc1/C=N/O	> 100
COc1ccc(/C=C(/C(=O)O)c2cc(OC)c(OC)c(OC)c2)cc1	> 100
O=C1Oc2cc3c(c4cccc1c24)OCN(c1ccc(Cl)cc1)C3	> 100
CCOC(=O)CCCO	> 100

What follows are compounds tested on OVCAR-8 ovarian (assay: NCI tumour cell line growth inhibition, 48 h).

SMILES	TGI [µM]
c1ccc(-c2nnc(-c3nn(-c4ccccc4)c4nc5ccccc5nc34)o2)cc1	> 100
COc1cc2c(cc1OC)C1C=NC(C(=O)O)(C2)c2ccccc21 (configuration not stated)	> 100
Cc1cc(C)nc(NS(=O)(=O)c2ccc(NC(=O)c3cccc4c(=O)c5ccccc5[nH]c34)cc2)n1	41.1
O=C(N/N=C/c1cccc(O)c1O)N/N=C/c1cccc(O)c1O	> 100
CC(=O)OCCc1cccnc1/C=N/O	> 100
COc1ccc(/C=C(/C(=O)O)c2cc(OC)c(OC)c(OC)c2)cc1	> 100
O=C1Oc2cc3c(c4cccc1c24)OCN(c1ccc(Cl)cc1)C3	> 100
CCOC(=O)CCCO	> 100

These compounds were tested on M19-MEL melanoma (assay: NCI tumour cell line growth inhibition, 48 h).

SMILES	TGI [µM]
c1ccc(-c2nnc(-c3nn(-c4ccccc4)c4nc5ccccc5nc34)o2)cc1	> 100
COc1cc2c(cc1OC)C1C=NC(C(=O)O)(C2)c2ccccc21 (configuration not stated)	> 100
O=C(N/N=C/c1cccc(O)c1O)N/N=C/c1cccc(O)c1O	> 100
CC(=O)OCCc1cccnc1/C=N/O	> 100
COc1ccc(/C=C(/C(=O)O)c2cc(OC)c(OC)c(OC)c2)cc1	> 100
O=C1Oc2cc3c(c4cccc1c24)OCN(c1ccc(Cl)cc1)C3	> 57

The compounds below were run on RXF-631 renal (assay: NCI tumour cell line growth inhibition, 48 h).

SMILES	TGI [µM]
COc1cc2c(cc1OC)C1C=NC(C(=O)O)(C2)c2ccccc21 (configuration not stated)	> 100
Cc1cc(C)nc(NS(=O)(=O)c2ccc(NC(=O)c3cccc4c(=O)c5ccccc5[nH]c34)cc2)n1	> 100
COc1ccc(/C=C(/C(=O)O)c2cc(OC)c(OC)c(OC)c2)cc1	> 100
CCOC(=O)CCCO	> 100

Each compound was assayed on UACC-257 melanoma (assay: NCI tumour cell line growth inhibition, 48 h).

SMILES	TGI [µM]
c1ccc(-c2nnc(-c3nn(-c4ccccc4)c4nc5ccccc5nc34)o2)cc1	> 100
COc1cc2c(cc1OC)C1C=NC(C(=O)O)(C2)c2ccccc21 (configuration not stated)	> 100
Cc1cc(C)nc(NS(=O)(=O)c2ccc(NC(=O)c3cccc4c(=O)c5ccccc5[nH]c34)cc2)n1	33.9

From PubChem BioAssay (NCI)
